According to publication PMC8073907, “Peptide targeting of lysophosphatidylinositol-sensing GPR55 for osteoclastogenesis tuning” (Cell Communication and Signaling : CCS, 2021):

What was measured:
RAW264.7 cells = experiment: RANKL-induced transcription of osteoclastogenesis markers in RAW264.7 cells (real-time PCR); assay type: cell-based, murine; conditions: RANKL 15 ng/mL, 72 h, 1 µM soybean LPI
Description: Total RNA was extracted using RNeasy isolation kits, cDNAs were obtained using QuantiTect Reverse Transcription kits, and real-time PCRs were performed with QuantiTect SYBR Green PCR kits (all from Qiagen, Hilden, Germany), according to the manufacturer instructions. The primers used for the real-time PCRs and their annealing temperatures are listed in the Additional file 1: Table S1. Human hypoxanthine phosphoribosyltransferase 1 (HPRT1) or murine β2-microglobulin were followed as housekeeping genes. The real-time PCR programme consisted of an initial 15 min at 95 °C, and then 45 cycles as follows: 94 °C for 15 s, annealing temperature of each primer for 30 s, and 72 °C for 30 s. The real-time PCR machine used was a LightCycler 480 Instrument II (Roche, Indianapolis, IN, USA).
For transient interference of Gpr55, RAW264.7 cells were plated at 6 × 10^5 cells/well in six-well plates in growth medium without antibiotics. Twenty-four hours later, the cells were transfected with 250 pmol/well non-targeting small-interfering (si)RNAs (si-NT; siGENOME siRNA Pool #2; D-001206-14; Dharmacon, Chicago, IL, USA) or Gpr55-specific siRNAs (si-GPR55; siGENOME mouse GPR55 SMART pool; M-043590-01; Dharmacon) using Lipofectamine LTX and Plus Reagent, according to the manufacturer instructions. Twenty-four hours later, the cells were plated for the different assays or for RNA extraction. The efficiency of interference was monitored by real-time PCR after 72 h of interference, using the primers listed in the Additional file 1: Table S1. β2-microglobulin was followed as a housekeeping gene.
For the osteoclastogenesis in-vitro assay, RAW264.7 cells were plated in differentiation medium (α-MEM with 10% heat-inactivated FBS, 2 mM L-glutamine, 100 U/mL penicillin, and 100 ug/mL streptomycin) at a density of 5 × 10^3 cells/well in 24-well plates on coverslips for morphological analysis, or at 2 × 10^4 cells/well in six-well plates for RNA extraction. Twenty-four hours later and every 48 h, the medium was replaced and the cells were treated with 15–30 ng/mL RANKL with DMSO and/or PBS as carriers, or with GPR55 antagonists/ agonists (0.5 µM ML-191, 30 µM O1918, 0.5 µM CBD, 0.5 μM CID16020046 1 µM soybean LPI, 1 μM ML-184), or with the peptides (150 nM peptide-P1; or the irrelevant peptide, Irr_P). Twenty-four hours after the last addition, the cells were fixed with 4% paraformaldehyde for morphological analyses or harvested for RNA extraction (see above).

[1] = tested on: osteoclasts derived from RAW264.7 cells; experiment: Osteoclast functional assay (bone resorption on bovine cortical bone slices); assay type: cell-based, murine; conditions: 0.5 µM CID16020046, 15 ng/mL RANKL, 7 days
Description: RAW264.7 cells were plated in differentiation medium at a density of 1250 cells/100 µL on 0.2-mm-thick bovine cortical bone slices (BoneSlices.com, Jelling, Denmark) in 96-well plates. Six hours later, 100 µL differentiation medium with RANKL (15 ng/mL, final concentration) was added, in the presence of a carrier or in combination with the GPR55 modulators. The media with the different compounds were replaced every 48 h, for a total of 7 days. At the end of this period, the cells were detached with a 10% bleach solution, and the resorption excavations were visualised by using Toluidine Blue staining (Sigma-Aldrich). Images of the resorption areas were obtained under the microscope (SW380T; Swift Optical Instruments, Inc., TX, USA) using the 10 × objective, and acquired with a digital camera (Swiftcam SC1003; Swift Optical Instruments, Inc.). The total eroded surface underwent blinded quantification using ImageJ (NIH), and was subdivided into pit and trench surfaces. Pits were characterised as round excavations with well-defined edges where the ratio between length and width was < 2.0. Trenches were defined as elongated excavations with well-defined edges whose length was at least twice the wide, and with clear signs of continued resorption. The prevalence of trenches was calculated as a proportion (%) of the trench surface relative to the total eroded surface.

GPR55 = conditions: ref [55]; cited from earlier work
Description: GPR55 involvement in osteoclast functions was directly assessed using in-vitro assays of bone resorbing activity. As the transient silencing by GPR55-specific siRNAs in precursor cells was not applicable to this long-term differentiation assay, pharmacological perturbation of GPR55 was carried out with only the most specific antagonists (ML-191, CID16020046) and LPI. RAW264.7 cells were plated on cortical bone slices and RANKL-differentiated for 7 days in the absence or presence of the different GPR55 regulators. At the end of the differentiation, the cells were detached and the resorbing area ...

Cc1ccc(-c2n[nH]c3c2C(c2cccc(O)c2)N(c2ccc(C(=O)O)cc2)C3=O)cc1 (centres unmarked) [CID16020046]
reduction of LPI-stimulated Ctr transcription (RAW264.7 cells; 0.5 µM CID16020046): 50% | block of LPI-stimulated Nfatc1 transcription (RAW264.7 cells; 0.5 µM ML-191 or 0.5 µM CID16020046): completely blocked | inhibition of RANKL-promoted osteoclast degrading activity [1]: only slightly inhibited | reduction of relative trench contribution compared to RANKL ([1]; p < 0.05): about 30% | mode of action on GPR55 (GPR55): GPR55 inverse agonist
